Experimental findings from ChEMBL document CHEMBL5291721, “A preclinical secondary pharmacology resource illuminates target-adverse drug reaction associations of marketed drugs” (Nat Commun, 2023) are described below.

Among the targets are Adenosine receptor A2a (Homo sapiens, UniProt P29274); Motilin receptor (Homo sapiens, UniProt O43193); Histamine H3 receptor (Homo sapiens, UniProt Q9Y5N1).
Experiment [1] addresses T1, Gamma-aminobutyric acid receptor subunit alpha-1 (Rattus norvegicus, UniProt P62813).
In experiment [2] the target is T2, 5-hydroxytryptamine receptor 2C (Homo sapiens, UniProt P28335).
T2 sequence (P28335 whole entry): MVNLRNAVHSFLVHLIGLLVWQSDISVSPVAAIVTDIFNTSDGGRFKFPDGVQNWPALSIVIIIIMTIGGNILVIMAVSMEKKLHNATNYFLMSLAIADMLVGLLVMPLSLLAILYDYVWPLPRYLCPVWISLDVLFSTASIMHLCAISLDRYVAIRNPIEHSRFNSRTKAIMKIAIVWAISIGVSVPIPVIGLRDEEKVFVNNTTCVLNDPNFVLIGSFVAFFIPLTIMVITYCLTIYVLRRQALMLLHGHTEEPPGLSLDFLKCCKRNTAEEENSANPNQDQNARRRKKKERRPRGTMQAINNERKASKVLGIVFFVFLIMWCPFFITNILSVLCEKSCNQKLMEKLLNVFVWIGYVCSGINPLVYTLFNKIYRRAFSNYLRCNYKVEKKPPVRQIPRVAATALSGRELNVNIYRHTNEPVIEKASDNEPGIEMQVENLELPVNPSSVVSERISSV

Experiment [3] concerns the target T3, Neuropeptide Y receptor type 1 (Homo sapiens, UniProt P25929).
T3 sequence (P25929 whole entry): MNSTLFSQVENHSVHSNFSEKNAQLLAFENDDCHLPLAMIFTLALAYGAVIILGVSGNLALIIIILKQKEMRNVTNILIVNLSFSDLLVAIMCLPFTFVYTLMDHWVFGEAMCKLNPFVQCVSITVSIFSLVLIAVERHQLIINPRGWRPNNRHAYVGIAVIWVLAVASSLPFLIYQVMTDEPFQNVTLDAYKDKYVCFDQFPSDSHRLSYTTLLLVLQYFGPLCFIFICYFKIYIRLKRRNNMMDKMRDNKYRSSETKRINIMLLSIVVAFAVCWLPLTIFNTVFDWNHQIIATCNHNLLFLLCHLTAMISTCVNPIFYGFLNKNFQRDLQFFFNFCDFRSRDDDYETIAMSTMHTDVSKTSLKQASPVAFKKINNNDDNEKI

For another experiment, the target named is Histamine H2 receptor (Homo sapiens, UniProt P25021). It counts as functional, cell-based.
Chain of Histamine H2 receptor (P25021 whole entry): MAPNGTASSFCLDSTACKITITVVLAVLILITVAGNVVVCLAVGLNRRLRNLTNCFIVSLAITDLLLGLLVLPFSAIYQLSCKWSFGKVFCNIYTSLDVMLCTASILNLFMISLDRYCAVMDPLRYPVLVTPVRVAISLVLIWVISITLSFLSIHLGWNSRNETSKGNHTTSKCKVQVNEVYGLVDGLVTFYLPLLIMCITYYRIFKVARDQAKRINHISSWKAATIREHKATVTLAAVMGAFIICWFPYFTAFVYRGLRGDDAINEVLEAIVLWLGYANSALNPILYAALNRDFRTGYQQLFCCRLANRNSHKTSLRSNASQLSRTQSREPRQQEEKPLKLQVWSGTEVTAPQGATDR
For experiment [4], the target named is cGMP-inhibited 3',5'-cyclic phosphodiesterase 3A (Homo sapiens, UniProt Q14432). It counts as functional.
The target of experiment [5] is T4, Muscarinic acetylcholine receptor M1 (Homo sapiens, UniProt P11229).
T4 sequence (P11229 whole entry): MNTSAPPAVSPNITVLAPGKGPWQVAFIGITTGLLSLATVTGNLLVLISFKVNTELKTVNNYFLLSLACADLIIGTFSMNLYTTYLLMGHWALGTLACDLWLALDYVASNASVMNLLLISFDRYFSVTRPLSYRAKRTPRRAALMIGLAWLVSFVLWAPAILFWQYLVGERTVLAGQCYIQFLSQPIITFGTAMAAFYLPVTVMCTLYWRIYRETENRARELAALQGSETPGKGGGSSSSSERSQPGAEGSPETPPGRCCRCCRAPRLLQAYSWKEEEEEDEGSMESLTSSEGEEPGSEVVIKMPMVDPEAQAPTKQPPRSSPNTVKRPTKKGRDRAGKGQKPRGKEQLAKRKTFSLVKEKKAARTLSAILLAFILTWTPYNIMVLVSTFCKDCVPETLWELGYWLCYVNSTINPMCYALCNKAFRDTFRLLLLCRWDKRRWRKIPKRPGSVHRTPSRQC
It counts as functional.

The target in experiment [6] is 5-hydroxytryptamine receptor 2B (Homo sapiens, UniProt P41595). The class given is functional, cell-based.
In experiment [7] the target is Sodium-dependent noradrenaline transporter (Homo sapiens, UniProt P23975).
Chain of Sodium-dependent noradrenaline transporter (P23975 whole entry): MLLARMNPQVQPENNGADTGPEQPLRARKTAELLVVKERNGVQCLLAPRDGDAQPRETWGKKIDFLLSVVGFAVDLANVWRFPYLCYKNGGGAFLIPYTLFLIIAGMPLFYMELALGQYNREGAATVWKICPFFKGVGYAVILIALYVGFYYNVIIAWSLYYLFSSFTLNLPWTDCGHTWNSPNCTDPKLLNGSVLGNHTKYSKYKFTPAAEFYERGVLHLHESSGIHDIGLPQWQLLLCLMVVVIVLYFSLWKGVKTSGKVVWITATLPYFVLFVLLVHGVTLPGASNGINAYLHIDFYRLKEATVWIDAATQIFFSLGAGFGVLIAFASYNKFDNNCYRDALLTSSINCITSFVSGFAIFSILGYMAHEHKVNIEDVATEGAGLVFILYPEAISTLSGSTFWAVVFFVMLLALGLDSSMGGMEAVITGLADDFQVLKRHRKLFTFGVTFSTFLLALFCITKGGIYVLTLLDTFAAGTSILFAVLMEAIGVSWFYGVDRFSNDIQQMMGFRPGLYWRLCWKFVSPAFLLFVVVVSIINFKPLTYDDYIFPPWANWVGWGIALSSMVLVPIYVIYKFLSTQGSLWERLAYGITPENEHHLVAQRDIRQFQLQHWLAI
For experiment [8], the target named is Beta-2 adrenergic receptor (Homo sapiens, UniProt P07550).
Chain of Beta-2 adrenergic receptor (P07550 whole entry): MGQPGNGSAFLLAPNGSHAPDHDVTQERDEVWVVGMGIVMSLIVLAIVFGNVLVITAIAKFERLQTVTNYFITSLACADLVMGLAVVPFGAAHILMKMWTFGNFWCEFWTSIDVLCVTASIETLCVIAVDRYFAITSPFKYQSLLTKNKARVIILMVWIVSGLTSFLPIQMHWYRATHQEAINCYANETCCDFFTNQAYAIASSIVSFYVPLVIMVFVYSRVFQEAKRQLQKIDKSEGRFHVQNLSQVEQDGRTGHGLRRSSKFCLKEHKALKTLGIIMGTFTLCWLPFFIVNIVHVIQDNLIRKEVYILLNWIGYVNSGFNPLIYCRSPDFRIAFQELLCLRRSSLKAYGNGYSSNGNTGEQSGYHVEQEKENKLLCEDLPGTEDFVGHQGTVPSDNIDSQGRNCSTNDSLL
Experiment [9] addresses T1, Gamma-aminobutyric acid receptor subunit alpha-1. The class given is functional.
The target in experiment [10] is Sodium-dependent dopamine transporter (Homo sapiens, UniProt Q01959).
Chain of Sodium-dependent dopamine transporter (Q01959 whole entry): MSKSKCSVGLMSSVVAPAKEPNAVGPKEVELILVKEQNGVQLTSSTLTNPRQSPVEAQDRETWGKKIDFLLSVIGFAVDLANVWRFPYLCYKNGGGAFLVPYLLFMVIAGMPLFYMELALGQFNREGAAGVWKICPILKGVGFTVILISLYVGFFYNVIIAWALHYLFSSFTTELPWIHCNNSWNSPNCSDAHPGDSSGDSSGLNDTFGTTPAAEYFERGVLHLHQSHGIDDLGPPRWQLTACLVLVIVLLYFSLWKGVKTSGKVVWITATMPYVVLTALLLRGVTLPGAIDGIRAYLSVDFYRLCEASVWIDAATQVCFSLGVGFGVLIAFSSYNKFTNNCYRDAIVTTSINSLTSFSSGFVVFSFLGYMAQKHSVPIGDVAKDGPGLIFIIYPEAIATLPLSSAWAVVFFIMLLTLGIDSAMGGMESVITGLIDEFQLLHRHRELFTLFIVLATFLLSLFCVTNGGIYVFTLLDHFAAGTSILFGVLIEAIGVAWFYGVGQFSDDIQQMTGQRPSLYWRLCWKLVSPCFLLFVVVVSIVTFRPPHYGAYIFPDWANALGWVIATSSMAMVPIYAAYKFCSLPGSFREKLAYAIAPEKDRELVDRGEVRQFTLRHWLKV
Experiment [11] deals with 5-hydroxytryptamine receptor 2A (Homo sapiens, UniProt P28223). It counts as functional, cell-based.
Chain of 5-hydroxytryptamine receptor 2A (P28223 whole entry): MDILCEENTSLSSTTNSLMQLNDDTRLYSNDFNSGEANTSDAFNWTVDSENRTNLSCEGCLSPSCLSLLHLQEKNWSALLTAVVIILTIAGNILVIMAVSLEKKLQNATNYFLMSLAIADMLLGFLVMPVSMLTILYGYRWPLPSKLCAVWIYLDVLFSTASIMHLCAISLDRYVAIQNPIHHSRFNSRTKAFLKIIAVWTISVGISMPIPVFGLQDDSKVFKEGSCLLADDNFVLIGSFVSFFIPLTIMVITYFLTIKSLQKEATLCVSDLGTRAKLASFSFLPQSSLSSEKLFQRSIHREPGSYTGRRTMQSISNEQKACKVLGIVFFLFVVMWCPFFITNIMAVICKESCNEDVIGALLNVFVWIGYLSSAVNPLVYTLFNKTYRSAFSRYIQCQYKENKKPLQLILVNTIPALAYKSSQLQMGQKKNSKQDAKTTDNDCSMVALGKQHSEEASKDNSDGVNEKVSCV
Experiment [12] concerns the target Glutamate receptor ionotropic, NMDA 1 (Rattus norvegicus, UniProt P35439).
The target of experiment [13] is Beta-1 adrenergic receptor (Homo sapiens, UniProt P08588). It counts as functional.
For experiment [14], the target named is Growth hormone secretagogue receptor type 1 (Homo sapiens, UniProt Q92847).
Chain of Growth hormone secretagogue receptor type 1 (Q92847 whole entry): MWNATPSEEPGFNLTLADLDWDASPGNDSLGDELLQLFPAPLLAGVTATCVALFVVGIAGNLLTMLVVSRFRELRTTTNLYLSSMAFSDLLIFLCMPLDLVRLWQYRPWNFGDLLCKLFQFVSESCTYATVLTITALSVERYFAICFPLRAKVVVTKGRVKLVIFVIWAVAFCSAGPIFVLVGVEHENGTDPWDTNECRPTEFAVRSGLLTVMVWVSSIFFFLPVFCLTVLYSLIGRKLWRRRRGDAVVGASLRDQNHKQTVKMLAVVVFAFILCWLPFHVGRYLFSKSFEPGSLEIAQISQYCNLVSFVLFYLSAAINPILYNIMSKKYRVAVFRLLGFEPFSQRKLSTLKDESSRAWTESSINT
Experiment [15] addresses T5, Alpha-2A adrenergic receptor (Homo sapiens, UniProt P08913).
T5 sequence (P08913 whole entry): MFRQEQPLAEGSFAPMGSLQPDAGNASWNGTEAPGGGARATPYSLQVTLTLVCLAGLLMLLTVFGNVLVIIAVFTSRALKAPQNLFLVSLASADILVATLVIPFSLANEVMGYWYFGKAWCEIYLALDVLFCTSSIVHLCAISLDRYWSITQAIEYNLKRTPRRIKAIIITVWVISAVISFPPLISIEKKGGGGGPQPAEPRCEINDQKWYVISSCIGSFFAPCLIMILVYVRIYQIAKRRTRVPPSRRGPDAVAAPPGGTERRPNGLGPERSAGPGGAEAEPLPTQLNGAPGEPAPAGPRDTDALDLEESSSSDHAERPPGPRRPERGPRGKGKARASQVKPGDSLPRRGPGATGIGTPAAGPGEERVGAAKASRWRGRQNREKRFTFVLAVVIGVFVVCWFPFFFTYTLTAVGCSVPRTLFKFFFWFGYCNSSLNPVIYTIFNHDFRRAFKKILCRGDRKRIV
It counts as functional, cell-based.

In experiment [16] the target is Sodium-dependent serotonin transporter (Homo sapiens, UniProt P31645).
Chain of Sodium-dependent serotonin transporter (P31645 whole entry): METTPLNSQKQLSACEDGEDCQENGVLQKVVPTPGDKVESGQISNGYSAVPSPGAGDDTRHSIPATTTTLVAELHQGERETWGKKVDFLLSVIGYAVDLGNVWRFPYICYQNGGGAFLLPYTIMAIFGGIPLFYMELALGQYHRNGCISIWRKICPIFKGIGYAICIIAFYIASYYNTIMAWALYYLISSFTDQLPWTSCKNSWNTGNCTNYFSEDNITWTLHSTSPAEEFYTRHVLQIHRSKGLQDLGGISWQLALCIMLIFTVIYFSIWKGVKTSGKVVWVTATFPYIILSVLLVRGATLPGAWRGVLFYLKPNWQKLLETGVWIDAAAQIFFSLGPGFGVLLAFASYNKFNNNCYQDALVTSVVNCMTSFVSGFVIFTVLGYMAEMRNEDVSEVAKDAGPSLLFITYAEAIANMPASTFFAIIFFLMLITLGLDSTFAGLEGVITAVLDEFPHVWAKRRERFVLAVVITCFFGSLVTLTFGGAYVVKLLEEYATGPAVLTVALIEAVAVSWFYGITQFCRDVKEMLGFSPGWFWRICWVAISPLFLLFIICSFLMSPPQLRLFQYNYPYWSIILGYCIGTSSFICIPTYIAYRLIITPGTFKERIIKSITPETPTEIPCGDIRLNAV

Some results are limits rather than exact numbers.
Further: assay procedure not described here.

Chain of Motilin receptor (O43193 whole entry): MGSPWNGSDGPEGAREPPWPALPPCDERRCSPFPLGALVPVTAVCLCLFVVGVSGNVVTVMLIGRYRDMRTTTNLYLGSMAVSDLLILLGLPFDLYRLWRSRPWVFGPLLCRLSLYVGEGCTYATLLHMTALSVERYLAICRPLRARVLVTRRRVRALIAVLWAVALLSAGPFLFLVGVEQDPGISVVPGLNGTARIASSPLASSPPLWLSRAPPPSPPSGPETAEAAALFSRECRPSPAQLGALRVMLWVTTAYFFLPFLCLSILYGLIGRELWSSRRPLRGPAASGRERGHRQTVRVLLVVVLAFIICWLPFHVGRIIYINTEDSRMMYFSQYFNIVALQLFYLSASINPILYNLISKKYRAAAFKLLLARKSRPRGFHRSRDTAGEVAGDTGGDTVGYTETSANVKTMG
T1 sequence (P62813 whole entry): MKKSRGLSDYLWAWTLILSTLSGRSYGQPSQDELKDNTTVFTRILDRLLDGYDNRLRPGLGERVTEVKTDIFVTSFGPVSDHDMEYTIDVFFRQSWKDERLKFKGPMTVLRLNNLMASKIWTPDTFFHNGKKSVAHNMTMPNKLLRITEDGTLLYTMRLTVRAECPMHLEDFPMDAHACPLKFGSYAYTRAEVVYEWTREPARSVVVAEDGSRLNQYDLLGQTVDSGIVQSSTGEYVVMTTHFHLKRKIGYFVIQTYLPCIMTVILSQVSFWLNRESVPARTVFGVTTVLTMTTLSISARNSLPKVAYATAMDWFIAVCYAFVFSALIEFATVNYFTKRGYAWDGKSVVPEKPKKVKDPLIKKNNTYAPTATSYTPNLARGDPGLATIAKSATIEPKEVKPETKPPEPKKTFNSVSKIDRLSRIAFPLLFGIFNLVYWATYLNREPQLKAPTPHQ
Chain of Adenosine receptor A2a (P29274 whole entry): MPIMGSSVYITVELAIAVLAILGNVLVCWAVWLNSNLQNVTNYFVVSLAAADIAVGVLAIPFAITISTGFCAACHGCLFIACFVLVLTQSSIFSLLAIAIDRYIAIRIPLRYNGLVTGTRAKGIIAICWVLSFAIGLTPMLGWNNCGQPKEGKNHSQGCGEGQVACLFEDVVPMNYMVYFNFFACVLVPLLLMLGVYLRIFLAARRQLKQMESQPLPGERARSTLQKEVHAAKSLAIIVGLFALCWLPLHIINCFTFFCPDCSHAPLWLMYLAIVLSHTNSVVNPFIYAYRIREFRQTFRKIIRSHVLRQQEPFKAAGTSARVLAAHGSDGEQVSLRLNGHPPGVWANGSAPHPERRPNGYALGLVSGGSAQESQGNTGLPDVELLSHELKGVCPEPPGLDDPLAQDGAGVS

As for `O=C(CCCCC(=O)Nc1c(I)cc(I)c(C(=O)O)c1I)Nc1c(I)cc(I)c(C(=O)O)c1I` [IODIPAMIDE], the AC50 in [1] was greater than 10 µM; in experiment [2], greater than 30 µM; in experiment [3], greater than 10 µM; on Histamine H2 receptor, greater than 30 µM; in experiment [4] it was greater than 30 µM; in experiment [5], greater than 10 µM. Also, the AC50 in [6], in experiment [7], in [8], in experiment [9], in experiment [10] and in experiment [11] was greater than 10 µM in each case. Also, the concentration at half-maximal activity (AC50) (in [12]; in experiment [13]; at Adenosine receptor A2a; on Motilin receptor; in experiment [14]; in [15]) was greater than 10 µM each time. For the same compound, the half-maximal activity concentration (AC50) in experiment [16] was greater than 10 µM.
`CN1C(=O)CC(=O)N(c2ccccc2)c2cc(Cl)ccc21` [CLOBAZAM]: the half-maximal activity concentration (AC50) in experiment [1] was greater than 10 µM; in experiment [2], greater than 30 µM; in experiment [3], greater than 10 µM; on Histamine H2 receptor, greater than 10 µM; in [4] it was greater than 30 µM; in experiment [5], greater than 10 µM. Also, the AC50 in [6] is greater than 10 µM; in experiment [7] it was greater than 10 µM; in experiment [8], greater than 10 µM; in experiment [9], 0.3 µM; in experiment [10], greater than 10 µM; in experiment [11], greater than 10 µM. The concentration at half-maximal activity (AC50) (in experiment [12]; in experiment [13]; on Adenosine receptor A2a; at Motilin receptor; in experiment [14]; in [15]) was greater than 10 µM throughout. The compound further returned an AC50 in [16] greater than 10 µM.
`CN1CC[C@]23CCCC[C@H]2[C@H]1Cc1ccc(O)cc13` [LEVORPHANOL]: the AC50 in experiment [1] was greater than 10 µM; in experiment [2] it was greater than 30 µM; in experiment [3], greater than 10 µM; on Histamine H2 receptor, greater than 30 µM; in experiment [4], greater than 30 µM; in [5], greater than 30 µM. The AC50 in experiment [6] is greater than 10 µM; in experiment [7], greater than 30 µM; in experiment [8] it was greater than 10 µM; in experiment [9] it was greater than 10 µM; in experiment [10], greater than 30 µM; in experiment [11], greater than 10 µM. The half-maximal activity concentration (AC50) in experiment [12] is 0.652 µM; in [13], greater than 10 µM; on Adenosine receptor A2a, greater than 10 µM; at Motilin receptor, greater than 10 µM; in [14], greater than 10 µM; in experiment [15] it was 9 µM. In experiment [16], this compound had an AC50 of 0.173 µM.
On to `CN1CCCN=C1COC(=O)C(O)(c1ccccc1)C1CCCCC1` (stereo not drawn) [OXYPHENCYCLIMINE], for which the AC50 in [1] was greater than 10 µM; in experiment [2] it was greater than 30 µM; in experiment [3] it was greater than 10 µM; at Histamine H2 receptor, greater than 10 µM; in experiment [4], greater than 30 µM; in [5], 0.019 µM. In addition, the concentration at half-maximal activity (AC50) in experiment [6] was greater than 10 µM; in experiment [7], greater than 30 µM; in experiment [8], greater than 10 µM; in experiment [9], greater than 10 µM; in experiment [10] it was greater than 30 µM; in [11] it was greater than 10 µM. The AC50 (in experiment [12]; in experiment [13]; at Adenosine receptor A2a; on Motilin receptor; in experiment [14]; in experiment [15]) was greater than 10 µM throughout. Besides, the concentration at half-maximal activity (AC50) in experiment [16] is greater than 30 µM.
In the case of `CC(C)[N+](C)(CCC(C(N)=O)(c1ccccc1)c1ccccc1)C(C)C` [ISOPROPAMIDE], the half-maximal activity concentration (AC50) in experiment [1] is greater than 10 µM; in [2] it was greater than 30 µM; in [3], greater than 10 µM; at Histamine H2 receptor, greater than 10 µM; in [4], greater than 30 µM; in experiment [5], 0.013 µM. The half-maximal activity concentration (AC50) in experiment [6], in experiment [7], in experiment [8], in [9], in [10] and in experiment [11] was greater than 10 µM in each case. In addition, the concentration at half-maximal activity (AC50) (in experiment [12]; in [13]; at Adenosine receptor A2a; at Motilin receptor; in experiment [14]; in [15]) was greater than 10 µM each time. In experiment [16], this compound registered a concentration at half-maximal activity (AC50) greater than 10 µM.
In the case of `CN1CCC2=C(C1)C(c1ccccc1)c1ccccc12` (stereo not drawn) [PHENINDAMINE], the AC50 is greater than 10 µM in [1]; greater than 30 µM in experiment [2]; greater than 10 µM in experiment [3]; greater than 10 µM at Histamine H2 receptor; greater than 30 µM in experiment [4]; greater than 10 µM in experiment [5]. Moreover, the AC50 is greater than 10 µM in experiment [6]; greater than 30 µM in experiment [7]; greater than 10 µM in experiment [8]; greater than 10 µM in [9]; greater than 30 µM in [10]; greater than 10 µM in [11]. Further, the concentration at half-maximal activity (AC50) (in [12]; in experiment [13]; at Adenosine receptor A2a; on Motilin receptor; in [14]; in experiment [15]) was greater than 10 µM in each case. This compound also showed a half-maximal activity concentration (AC50) in [16] greater than 30 µM.
Regarding `CCCCCCC(C)(C)c1cc(O)c2c(c1)OC(C)(C)C1CCC(=O)CC21` (stereo not drawn) [NABILONE], the AC50 (in experiment [1]; in experiment [2]; in experiment [3]; on Histamine H2 receptor; in experiment [4]; in experiment [5]) was greater than 30 µM each time. Moreover, the concentration at half-maximal activity (AC50) in [6] is greater than 30 µM; in experiment [7], greater than 30 µM; in experiment [9], greater than 30 µM; at Histamine H3 receptor it was greater than 30 µM; in experiment [10], 16 µM; in experiment [11] it was greater than 30 µM. For the same compound, the AC50 (in experiment [12]; in experiment [13]; on Adenosine receptor A2a; on Motilin receptor; in experiment [14]; in [15]) was greater than 30 µM each time. The concentration at half-maximal activity (AC50) in [16] is greater than 30 µM.

Usually AC50 stands for the midpoint of the concentration-response curve, whichever way the signal moves. Higher therefore signals weaker potency.
